From patent US11530193B2, “Kinase inhibitors” (The University of Manchester, priority 2018, dated 2022)
Where two headings read alike, the source gives them in different places.

Experiments:
CAMK1D [1] = biological target: T1, CAMK1D (Homo sapiens (Human), UniProt Q8IU85); assay: Tm-Shift assay (thermal melting, SYPRO Orange); assay type: binding; conditions: for ΔTm at 10 µM: read-out: CAMK1d Tm-Shift; for CAMK1d Tm-Shift: compound 10 μM, protein 2 μM, ΔTm obs vs protein without ligand, triplicate
SYK = SYK (Homo sapiens (Human), UniProt P43405); assay: Tm-Shift assay (thermal melting, SYPRO Orange); assay type: binding;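 also: recombinant His-tagged protein made in Sf9 insect cells by baculovirus, in HEPES NaCl buffer, heated stepwise with fluorescence recorded at every temperature step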
CAMK1D [2] = biological target: T1, CAMK1D; assay: Biochemical CaMK1D enzymatic activity assay (ADP-Glo Kinase Assay); conditions: 3 nM CaMK1D, 1 μM Calmodulin, […] Autocamtide-2, 10 μM ATP, 25C, 2 hours
[3] = compound 10 μM, protein 2 μM, ΔTm obs vs protein without ligand, triplicate

Structure (SMILES)	ΔTm at 10 µM (CAMK1D [1]) [°C]	SYK Tm-Shift (SYK; [3]) [°C]	IC50 (CAMK1D [2]) [nM]	CAMK1d Tm-Shift (CAMK1D [1]) [°C]	SYK Tm-Shift (SYK) [°C]
CC(C)(C)c1cc(Nc2nc(N3CCC[C@H](N)C3)ncc2C(N)=O)cc(C(=O)N2CCCC2)c1 [Example 28, (S)-2-(3-aminopiperidin-1-yl)-4-((3-(tert-butyl)-5-(pyrrolidine-1-carbonyl)phenyl)amino)pyrimidine-5-carboxamide]	11.8	0.5			
CC(C)(C)c1cc(Nc2nc(N3CCC[C@H](N)C3)ncc2C(N)=O)cc(C(=O)N2CCOCC2)c1 [Example 29, (S)-2-(3-aminopiperidin-1-yl)-4-((3-(tert-butyl)-5-(morpholine-4-carbonyl)phenyl)amino)pyrimidine-5-carboxamide]	12.4	0.3			
CC1(C)COCCN1C(=O)c1cccc(Nc2nc(N3CCC[C@H](N)C3)ncc2C(N)=O)c1 [Example 30, (S)-2-(3-aminopiperidin-1-yl)-4-((3-(3,3-dimethylmorpholine-4-carbonyl)phenyl)amino) pyrimidine-5-carboxamide]				9.5	2.0
NC(=O)c1cnc(N2CCC[C@H](N)C2)nc1Nc1cc(-c2ccccc2)c2cn[nH]c2c1 [Example 60, (S)-2-(3-aminopiperidin-1-yl)-4-((4-phenyl-1H-indazol-6-yl)amino)pyrimidine-5-carboxamide]	9.9		10		
CC(C)(C)c1cc(Nc2nc(N3CCC[C@H](N)C3)ncc2C(N)=O)cc(S(=O)(=O)N2CCOCC2)c1 [Example 104, (S)-2-(3-aminopiperidin-1-yl)-4-((3-(tert-butyl)-5-(morpholinosulfonyl)phenyl)amino) pyrimidine-5-carboxamide]				11.5	0.9
CN(C)S(=O)(=O)c1cc(Nc2nc(N3CCC[C@H](N)C3)ncc2C(N)=O)cc(C(C)(C)C)c1 [Example 105, (S)-2-(3-aminopiperidin-1-yl)-4-((3-(tert-butyl)-5-(N,N-dimethylsulfamoyl)phenyl)amino) pyrimidine-5-carboxamide]				12.9	1.3
CNS(=O)(=O)c1cc(Nc2nc(Cl)ncc2C(N)=O)cc(C(F)(F)F)c1 [Example 108, 2-chloro-4-((3-(N-methylsulfamoyl)-5-(trifluoromethyl)phenyl)amino)pyrimidine-5-carboxamide]	10.7	0.3			

Continued, in another order:

ΔTm at 10 µM (CAMK1D [1]) [°C]	SYK Tm-Shift (SYK; [3]) [°C]	IC50 (CAMK1D [2]) [nM]	Structure (SMILES)	CAMK1d Tm-Shift (CAMK1D [1]) [°C]	SYK Tm-Shift (SYK) [°C]
11.2	2.1		CC1(C)COCCN1C(=O)c1cc(Nc2nc(N3CCC[C@H](N)C3)ncc2C(N)=O)cc(C(F)(F)F)c1 [Example 32, (S)-2-(3-aminopiperidin-1-yl)-4-((3-(3,3-dimethylmorpholine-4-carbonyl)-5-(trifluoromethyl)phenyl)amino)pyrimidine-5-carboxamide]		
10.9	−0.3		Cc1ccccc1-c1cc(Nc2nc(N3CCC[C@H](N)C3)ncc2C(N)=O)cc(C(=O)N2CCOCC2)c1 [Example 44, (S)-2-(3-aminopiperidin-1-yl)-4-((2′-methyl-5-(morpholine-4-carbonyl)-[1,1′-biphenyl]-3-yl)amino)pyrimidine-5-carboxamide]		
12.6	4.6		COC(=O)c1cc(Nc2nc(N3CCC[C@H](N)C3)ncc2C(N)=O)cc(C(C)(C)C#N)c1 [Example 45, Methyl (S)-3-((2-(3-aminopiperidin-1-yl)-5-carbamoylpyrimidin-4-yl)amino)-5-(2-cyanopropan-2-yl)benzoate]		
12.2	0.7		CC(C)(C)c1cc(Nc2nc(N3CCC[C@H](N)C3)ncc2C(N)=O)cc(S(=O)(=O)N2CCCC2)c1 [Example 103, (S)-2-(3-aminopiperidin-1-yl)-4-((3-(tert-butyl)-5-(pyrrolidin-1-ylsulfonyl)phenyl)amino)pyrimidine-5-carboxamide]		
